From ChEMBL document CHEMBL4665709, “Rational Avoidance of Protease Cleavage Sites and Symmetrical End-Tagging Significantly Enhances the Stability and Therapeutic Potential of Antimicrobial Peptides” (J Med Chem, 2020)
Converted amounts (≈) assume the structure as drawn. Where a SMILES comes first, the peptide text is derived from it.

How the values were obtained:
[1] = Therapeutic index, ratio of MHC for human RBC to geometric mean of peptide MIC for Streptococcus agalactiae H92; assay type: toxicity; settings: human red blood cells (RBC), read-out: TI
[2] = Therapeutic index, ratio of MHC for human RBC to geometric mean of peptide MIC for Staphylococcus epidermidis ATCC 12228; assay type: toxicity; settings: human red blood cells (RBC), read-out: TI
[3] = Therapeutic index, ratio of MHC for human RBC to geometric mean of peptide MIC for methicillin-resistant Staphylococcus aureus 43300; assay type: toxicity; settings: human red blood cells (RBC), read-out: TI
[4] = Therapeutic index, ratio of MHC for human RBC to geometric mean of peptide MIC for Enterococcus faecalis ATCC 29212; assay type: toxicity; settings: human red blood cells (RBC), read-out: TI
[5] = Therapeutic index, ratio of MHC for human RBC to geometric mean of peptide MIC for Staphylococcus aureus ATCC 29213; assay type: toxicity; settings: human red blood cells (RBC), read-out: TI
[6] = Therapeutic index, ratio of MHC for human RBC to geometric mean of peptide MIC for Staphylococcus aureus 11011; assay type: toxicity; settings: human red blood cells (RBC), read-out: TI
[7] = Therapeutic index, ratio of MHC for human RBC to geometric mean of peptide MIC for Salmonella pullorum 7913; assay type: toxicity; settings: human red blood cells (RBC), read-out: TI
[8] = Therapeutic index, ratio of MHC for human RBC to geometric mean of peptide MIC for Salmonella typhimurium 7731; assay type: toxicity; settings: human red blood cells (RBC), read-out: TI
[9] = Therapeutic index, ratio of MHC for human RBC to geometric mean of peptide MIC for Salmonella choleraesuis 503; assay type: toxicity; settings: human red blood cells (RBC), read-out: TI
[10] = Therapeutic index, ratio of MHC for human RBC to geometric mean of peptide MIC for Escherichia coli UB1005; assay type: toxicity; settings: human red blood cells (RBC), read-out: TI
[11] = Therapeutic index, ratio of MHC for human RBC to geometric mean of peptide MIC for Salmonella typhimurium 14028; assay type: toxicity; settings: human red blood cells (RBC), read-out: TI
[12] = Therapeutic index, ratio of MHC for human RBC to geometric mean of peptide MIC for Escherichia coli ATCC 25922; assay type: toxicity; settings: human red blood cells (RBC), read-out: TI
Staphylococcus aureus [13] = test: Antibacterial activity against Staphylococcus aureus ATCC 29213 after 18 to 24 hrs by CLSI-based broth microdilution method; assay type: functional; settings: time hrs 18-24
Staphylococcus aureus [14] = test: Antibacterial activity against Staphylococcus aureus 11011 after 18 to 24 hrs by CLSI-based broth microdilution method; assay type: functional; settings: time hrs 18-24
Escherichia coli [15] = test: Antibacterial activity against Escherichia coli ATCC 25922 after 18 to 24 hrs by CLSI-based broth microdilution method; assay type: functional; settings: time hrs 18-24
Escherichia coli [16] = test: Antibacterial activity against Escherichia coli UB1005 after 18 to 24 hrs by CLSI-based broth microdilution method; assay type: functional; settings: time hrs 18-24
Salmonella typhimurium [17] = test: Antibacterial activity against Salmonella typhimurium 14028 after 18 to 24 hrs by CLSI-based broth microdilution method; assay type: functional, Salmonella enterica subsp. enterica serovar Typhimurium; settings: Salmonella enterica, time hrs 18-24
Salmonella typhimurium [18] = test: Antibacterial activity against Salmonella typhimurium 7731 after 18 to 24 hrs by CLSI-based broth microdilution method; assay type: functional, Salmonella enterica subsp. enterica serovar Typhimurium; settings: Salmonella enterica, time hrs 18-24
[19] = Antibacterial activity against Salmonella pullorum 7913 after 18 to 24 hrs by CLSI-based broth microdilution method; assay type: functional, Salmonella enterica subsp. enterica serovar Pullorum; settings: Salmonella enterica, time hrs 18-24
Salmonella enterica = test: Antibacterial activity against Salmonella choleraesuis 503 after 18 to 24 hrs by CLSI-based broth microdilution method; assay type: functional; settings: time hrs 18-24
[20] = test system: Staphylococcus epidermidis; test: Antibacterial activity against Staphylococcus epidermidis ATCC 12228 after 18 to 24 hrs by CLSI-based broth microdilution method; assay type: functional; settings: time hrs 18-24
Enterococcus faecalis = test: Antibacterial activity against Enterococcus faecalis ATCC 29212 after 18 to 24 hrs by CLSI-based broth microdilution method; assay type: functional; settings: time hrs 18-24
Staphylococcus aureus [21] = test: Antibacterial activity against methicillin-resistant Staphylococcus aureus 43300 after 18 to 24 hrs by CLSI-based broth microdilution method; assay type: functional; settings: time hrs 18-24
Streptococcus agalactiae = test: Antibacterial activity against Streptococcus agalactiae H92 after 18 to 24 hrs by CLSI-based broth microdilution method; assay type: functional; settings: time hrs 18-24
Erythrocyte = test: Hemolytic activity in human RBC assessed as hemolysis; assay type: ADME, cell-based
[22] = Hemolytic activity in human RBC assessed as hemolysis at 1 to 128 uM relative to control; assay type: ADME, cell-based, Erythrocyte; settings: human red blood cells (RBC), dose 1-128 µM, read-out: Activity
[23] = Cytotoxicity against mouse RAW264.7 cells assessed as cell viability at 128 uM by MTT assay relative to control; assay type: cell-based; settings: read-out: Activity
[24] = Cytotoxicity against HEK-293T cells assessed as cell viability at 128 uM by MTT assay relative to control; assay type: cell-based; settings: human, read-out: Activity

CC(C)[C@H](N)C(=O)N[C@@H](CS)C(=O)N[C@@H](CCCNC(=N)N)C(=O)N[C@@H](CCCCN)C(=O)N1CCC[C@H]1C(=O)N[C@H](C(=O)N[C@H](C(=O)N[C@@H](CS)C(=O)N[C@@H](CCCNC(=N)N)C(=O)N[C@@H](CCCCN)C(=O)N1CCC[C@H]1C(=O)N[C@H](C(=O)N[C@H](C(=O)N[C@@H](CS)C(=O)N[C@@H](CCCNC(=N)N)C(=O)N[C@@H](CCCCN)C(=O)N1CCC[C@H]1C(=O)N[C@H](C(N)=O)C(C)C)C(C)C)C(C)C)C(C)C)C(C)C (H-VCRKPVVCRKPVVCRKPV-NH2)
selectivity ratio [1]: 2
selectivity ratio [2]: 2
selectivity ratio [3]: 2
selectivity ratio [4]: 2
selectivity ratio [5]: 2
selectivity ratio [6]: 2
selectivity ratio [7]: 6.35
selectivity ratio [8]: 6.35
selectivity ratio [9]: 6.35
selectivity ratio [10]: 6.35
selectivity ratio [11]: 6.35
selectivity ratio [12]: 6.35
MIC (Staphylococcus aureus [13]): > 64 µM
MIC (Staphylococcus aureus [14]): > 64 µM
MIC (Escherichia coli [15]): 8 µM (≈ 16.5 µg/mL)
MIC (Escherichia coli [16]): 16 µM (≈ 33.1 µg/mL)
MIC (Salmonella typhimurium [17]): 8 µM (≈ 16.5 µg/mL)
MIC (Salmonella typhimurium [18]): 16 µM (≈ 33.1 µg/mL)
MIC [19]: > 64 µM
MIC (Salmonella enterica): > 64 µM
MIC [20]: > 64 µM
MIC (Enterococcus faecalis): > 64 µM
MIC (Staphylococcus aureus [21]): > 64 µM
MIC (Streptococcus agalactiae): > 64 µM
MHC (Erythrocyte): > 128 µM
hemolysis at up to 128 µM [22]: < 5%
viability at 128 µM [23]: > 90%
viability at 128 µM [24]: > 90%

CC[C@H](C)[C@H](N)C(=O)N[C@H](C(=O)N[C@H](C(=O)N[C@@H](CS)C(=O)N[C@@H](CCCNC(=N)N)C(=O)N[C@@H](CCCCN)C(=O)N1CCC[C@H]1C(=O)N[C@H](C(=O)N[C@H](C(=O)N[C@@H](CS)C(=O)N[C@@H](CCCNC(=N)N)C(=O)N[C@@H](CCCCN)C(=O)N1CCC[C@H]1C(=O)N[C@H](C(=O)N[C@H](C(=O)N[C@H](C(N)=O)[C@@H](C)CC)[C@@H](C)CC)[C@@H](C)CC)[C@@H](C)CC)[C@@H](C)CC)[C@@H](C)CC)[C@@H](C)CC (H-IIICRKPIICRKPIII-NH2)
selectivity ratio [1]: 2
selectivity ratio [2]: 2
selectivity ratio [3]: 2
selectivity ratio [4]: 2
selectivity ratio [5]: 2
selectivity ratio [6]: 2
selectivity ratio [7]: 6.35
selectivity ratio [8]: 6.35
selectivity ratio [9]: 6.35
selectivity ratio [10]: 6.35
selectivity ratio [11]: 6.35
selectivity ratio [12]: 6.35
MIC (Staphylococcus aureus [13]): > 64 µM
MIC (Staphylococcus aureus [14]): > 64 µM
MIC (Escherichia coli [15]): 8 µM (≈ 15.1 µg/mL)
MIC (Escherichia coli [16]): 8 µM (≈ 15.1 µg/mL)
MIC (Salmonella typhimurium [17]): 32 µM (≈ 60.5 µg/mL)
MIC (Salmonella typhimurium [18]): 32 µM (≈ 60.5 µg/mL)
MIC [19]: 32 µM (≈ 60.5 µg/mL)
MIC (Salmonella enterica): 32 µM (≈ 60.5 µg/mL)
MIC [20]: > 64 µM
MIC (Enterococcus faecalis): > 64 µM
MIC (Staphylococcus aureus [21]): > 64 µM
MIC (Streptococcus agalactiae): 64 µM (≈ 121 µg/mL)
MHC (Erythrocyte): > 128 µM
hemolysis at up to 128 µM [22]: < 5%
viability at 128 µM [23]: > 90%
viability at 128 µM [24]: > 90%

CC[C@H](C)[C@H](N)C(=O)N[C@@H](CS)C(=O)N[C@@H](CCCNC(=N)N)C(=O)N[C@@H](CCCCN)C(=O)N1CCC[C@H]1C(=O)N[C@H](C(=O)N[C@H](C(=O)N[C@@H](CS)C(=O)N[C@@H](CCCNC(=N)N)C(=O)N[C@@H](CCCCN)C(=O)N1CCC[C@H]1C(=O)N[C@H](C(=O)N[C@H](C(=O)N[C@@H](CS)C(=O)N[C@@H](CCCNC(=N)N)C(=O)N[C@@H](CCCCN)C(=O)N1CCC[C@H]1C(=O)N[C@H](C(N)=O)[C@@H](C)CC)[C@@H](C)CC)[C@@H](C)CC)[C@@H](C)CC)[C@@H](C)CC (H-ICRKPIICRKPIICRKPI-NH2)
selectivity ratio [1]: 2
selectivity ratio [2]: 2
selectivity ratio [3]: 2
selectivity ratio [4]: 2
selectivity ratio [5]: 2
selectivity ratio [6]: 2
selectivity ratio [7]: 11.3
selectivity ratio [8]: 11.3
selectivity ratio [9]: 11.3
selectivity ratio [10]: 11.3
selectivity ratio [11]: 11.3
selectivity ratio [12]: 11.3
MIC (Staphylococcus aureus [13]): > 64 µM
MIC (Staphylococcus aureus [14]): > 64 µM
MIC (Escherichia coli [15]): 8 µM (≈ 17.2 µg/mL)
MIC (Escherichia coli [16]): 4 µM (≈ 8.6 µg/mL)
MIC (Salmonella typhimurium [17]): 8 µM (≈ 17.2 µg/mL)
MIC (Salmonella typhimurium [18]): 8 µM (≈ 17.2 µg/mL)
MIC [19]: 64 µM (≈ 138 µg/mL)
MIC (Salmonella enterica): 16 µM (≈ 34.4 µg/mL)
MIC [20]: > 64 µM
MIC (Enterococcus faecalis): > 64 µM
MIC (Staphylococcus aureus [21]): > 64 µM
MIC (Streptococcus agalactiae): > 64 µM
MHC (Erythrocyte): > 128 µM
hemolysis at up to 128 µM [22]: < 5%
viability at 128 µM [23]: > 90%
viability at 128 µM [24]: > 90%
